Results reported in US8772504B2, “Substituted benzoxazole, benzimidazole, oxazolopyridine and imidazopyridine derivatives as gamma secretase modulators” (Janssen Pharmaceuticals, Inc., priority 2009, dated 2014).

Columns and labels:
Assay type in all cases: cell-based
Aβ42 [1] = assay: Screening for γ-secretase-modulating activity, Method 1: Aβ42 sandwich ELISA on SKNBE2 cell media; details: SKNBE2 cells carrying APP 695 wild type
Description: (§1) Screening was carried out using SKNBE2 cells carrying the APP 695—wild type, grown in Dulbecco's Modified Eagle's Medium/Nutrient mixture F-12 (DMEM/NUT-mix F-12) (HAM) provided by Gibco (cat no. 31330-38) containing 5% Serum/Fe supplemented with 1% non-essential amino acids. Cells were grown to near confluency.
(§2) The screening was performed using the assay as described in Citron et al (1997) Nature Medicine 3: 67. Briefly, cells were plated in a 96-well plate at about 10^5 cells/ml one day prior to addition of compounds. Compounds were added to the cells in Ultraculture (Lonza, BE12-725F) supplemented with 1% glutamine (Invitrogen, 25030-024) for 18 hours. The media were assayed by two sandwich ELISAs, for Aβ42 and Aβtotal. Toxicity of the compounds was assayed by WST-1 cell proliferation reagent (Roche, 1 644 807) according to the manufacturer's protocol.
To quantify the amount of Aβ42 in the cell supernatant, commercially available Enzyme-Linked-Immunosorbent-Assay (ELISA) kits were used (Innotest® β-Amyloid(1-42), Innogenetics N.V., Ghent, Belgium). The Aβ42 ELISA was performed essentially according to the manufacturer's protocol. Briefly, the standards (dilutions of synthetic Aβ1-42) were prepared in polypropylene Eppendorf with final concentrations of 8000 down to 3.9 pg/ml (1/2 dilution step). Samples, standards and blanks (100 μl) were added to the anti-Aβ42-coated plate supplied with the kit (the capture antibody selectively recognizes the C-terminal end of the antigen). The plate was allowed to incubate 3 h at 25° C. in order to allow formation of the antibody-amyloid complex. Following this incubation and subsequent wash steps a selective anti-Aβ-antibody conjugate (biotinylated 3D6) was added and incubated for a minimum of 1 hour in order to allow formation of the antibody-Amyloid-antibody-complex. After incubation and appropriate wash steps, a Streptavidine-Peroxidase-Conjugate was added, followed 30 minutes later by an addition of 3,3′,5,5′-tetramethylbenzidine (TMB)/peroxide mixture, resulting in the conversion of the substrate into a coloured product. This reaction was stopped by the addition of sulfuric acid (0.9 N) and the colour intensity was measured by means of photometry with an ELISA-reader with a 450 nm filter.
(§3) To obtain the values reported in Table 3a, the sigmoidal dose response curves were analysed by computerised curve-fitting, with percent of inhibition plotted against compound concentration. A 4-parameter equation (model 205) in XLfit was used to determine the IC50. The top and the bottom of the curve were fixed to 100 and 0, respectively, and the hill slope was fixed to 1. The IC50 represents the concentration of a compound that is required for inhibiting a biological effect by 50% (Here, it is the concentration where Aβ peptide level is reduced by 50%).
(§4) To obtain the values reported in Table 3b, the data were calculated as percentage of the maximum amount of amyloid Beta 42 measured in the absence of the test compound. The sigmoidal dose response curves were analyzed using non-linear regression analysis with percentage of the control plotted against the log concentration of the compound. A 4-parameter equation was used to determine the IC50. The values reported in Table 3b are averaged IC50 values.

Aβtotal [2] = assay: Screening for γ-secretase-modulating activity, Method 1: Aβtotal sandwich ELISA on SKNBE2 cell media; details: SKNBE2 cells carrying APP 695 wild type
Description: as §1, §2
To quantify the amount of Aβtotal in the cell supernatant, samples and standards were added to a 6E10-coated plate. The plate was allowed to incubate overnight at 4° C. in order to allow formation of the antibody-amyloid complex. Following this incubation and subsequent wash steps a selective anti-Aβ-antibody conjugate (biotinylated 4G8) was added and incubated for a minimum of 1 hour in order to allow formation of the antibody-Amyloid-antibody-complex. After incubation and appropriate wash steps, a Streptavidine-Peroxidase-Conjugate was added, followed 30 minutes later by an addition of Quanta Blu fluorogenic peroxidase substrate according to the manufacturer's instructions (Pierce Corp., Rockford, Ill.).
as §3, §4

Aβ42 [3] = assay: Screening for γ-secretase-modulating activity, Method 2: Aβ42 Alphalisa on SKNBE2 cell supernatant; details: Method 2, Table 3c, SKNBE2 cells carrying APP 695 wild type, overnight incubation
Description: as §1, with “Invitrogen” for “Gibco”, “10371-029)” for “31330-38)”, “acids, 1-glutamine 2 mM, Hepes 15 mM, penicillin 50 U/ml (units/ml) en streptomycin 50 μg/ml.” for “acids.”
(§5) The screening was performed using a modification of the assay as described in Citron et al (1997) Nature Medicine 3: 67. Briefly, cells were plated in a 384-well plate at 10^4 cells/well in Ultraculture (Lonza, BE12-725F) supplemented with 1% glutamine (Invitrogen, 25030-024), 1% non-essential amino acid (NEAA), penicillin 50 U/ml en streptomycin 50 μg/ml in the presence of test compound at different test concentrations. The cell/compound mixture was incubated overnight at 37° C., 5% CO2. The next day the media were assayed by two sandwich immuno-assays, for Aβ42 and Aβtotal.
(§6) Aβtotal and Aβ42 concentrations were quantified in the cell supernatant using the Aphalisa technology (Perkin Elmer). Alphalisa is a sandwich assay using biotinylated antibody attached to streptavidin coated donorbeads and antibody conjugated to acceptor beads. In the presence of antigen, the beads come into close proximity. The excitation of the donor beads provokes the release of singlet oxygen molecules that trigger a cascade of energy transfer in the acceptor beads, resulting in light emission. To quantify the amount of Aβ42 in the cell supernatant, monoclonal antibody specific to the C-terminus of Aβ42 (JRF/cAβ42/26) was coupled to the receptor beads and biotinylated antibody specific to the N-terminus of Aβ (JRF/AβN/25) was used to react with the donor beads. To quantify the amount of Aβtotal in the cell supernatant, monoclonal antibody specific to the N-terminus of Aβ (JRF/AβN/25) was coupled to the receptor beads and biotinylated antibody specific to the mid region of Aβ (biotinylated 4G8) was used to react with the donor beads.
as §4, with “3c,” for “3b,”, “IC50.” for “IC50. The values reported in Table 3b are averaged IC50 values.”

Aβtotal [4] = assay: Screening for γ-secretase-modulating activity, Method 2: Aβtotal Alphalisa on SKNBE2 cell supernatant; details: Method 2, Table 3c, SKNBE2 cells carrying APP 695 wild type, overnight incubation
Description: as §1, with “Invitrogen” for “Gibco”, “10371-029)” for “31330-38)”, “acids, 1-glutamine 2 mM, Hepes 15 mM, penicillin 50 U/ml (units/ml) en streptomycin 50 μg/ml.” for “acids.”
as §5, §6
as §4, with “3c,” for “3b,”, “IC50.” for “IC50. The values reported in Table 3b are averaged IC50 values.”

[5] = Homo sapiens, Table 3a, 18 hours, XLfit, top/bottom fixed to 100 and 0, hill slope 1
[6] = Homo sapiens, Table 3b, non-linear regression of % of control, averaged IC50 values
[7] = Table 3a, 18 hours, XLfit, top/bottom fixed to 100 and 0, hill slope 1
[8] = Table 3b, non-linear regression of % of control, averaged IC50 values

| SMILES | IC50 (Aβ42 [1]; [5]) | IC50 (Aβ42 [1]; [6]) | IC50 (Aβtotal [2]; [5]) | IC50 (Aβtotal [2]; [6]) | IC50 (Aβ42 [3]; Homo sapiens) | IC50 (Aβtotal [4]; Homo sapiens) | IC50 (Aβ42 [1]; [7]) | IC50 (Aβ42 [1]; [8]) | IC50 (Aβtotal [2]; [7]) | IC50 (Aβtotal [2]; [8]) | IC50 (Aβ42 [3]) | IC50 (Aβtotal [4]) |
| --- | --- | --- | --- | --- | --- | --- | --- | --- | --- | --- | --- | --- |
| COc1cc(Nc2cccc3c2nc(-c2ccc(F)cc2)n3C(C)C)ccc1-n1cnc(C)c1 [Compound 2] | 12 nM | 12 nM | > 1000 nM | > 1000 nM | 9 nM | 9.33 µM |  |  |  |  |  |  |
| COc1cc(Nc2cccc3c2nc(CC2CCNCC2)n3C)ccc1-n1cnc(C)c1 [Compound 9] | 600 nM | 603 nM | > 3000 nM | > 3000 nM | > 3000 nM | > 3 µM |  |  |  |  |  |  |
| Cc1ncn(-c2ccc(Nc3cccc4c3nc(C)n4C(C)C)cc2)n1 [Compound 20] |  |  |  |  |  |  | > 3000 nM | > 3000 nM | > 3000 nM | > 3000 nM | > 3000 nM | > 3 µM |
| COc1cc(Nc2cccc3c2nc(C)n3Cc2ccccc2)ccc1-n1cnc(C)c1 [Compound 22] |  |  |  |  |  |  | < 110 nM | < 110 nM | > 3000 nM | > 3000 nM | 151 nM | > 10 µM |
| Cc1ncn(-c2ccc(Nc3cccc4c3nc(C)n4Cc3ccccc3)cc2)n1 [Compound 23] |  |  |  |  |  |  | 1910 nM | 1860 nM | > 10000 nM | > 10000 nM | > 3000 nM | > 3 µM |
| COc1cc(Nc2cccc3c2nc(SCC(C)C)n3C)ccc1-n1cnc(C)c1 [Compound 33] |  |  |  |  |  |  | < 110 nM | < 110 nM | > 3000 nM | > 3000 nM | 245 nM | > 10 µM |
| CCn1c(CCC(F)(F)F)nc2c(Nc3ccc(-n4cnc(C)c4)c(OC)c3)cccc21 [Compound 35] |  |  |  |  |  |  | 24 nM | 22 nM | > 1000 nM | > 10000 nM | 60 nM | > 10 µM |
| COc1cc(Nc2cccc3oc(C4CCN(C)CC4)nc23)ccc1-n1cnc(C)c1 [Compound 40] |  |  |  |  |  |  | 1950 nM | 1950 nM | > 3000 nM | > 3000 nM | > 3000 nM | > 3 µM |
| COc1cc(Nc2cccc3oc(C4CCN(C(C)=O)CC4)nc23)ccc1-n1cnc(C)c1 [Compound 41] |  |  |  |  |  |  | > 3000 nM | > 3000 nM | > 3000 nM | > 3000 nM | 7590 nM | > 10 µM |
| COc1cccc(-c2nc3c(Nc4ccc(-n5cnc(C)c5)c(OC)c4)cccc3n2C)c1 [Compound 49] |  |  |  |  |  |  | 20 nM | 28 nM | > 1000 nM | > 3000 nM | 13 nM | > 10 µM |
| COc1cccc(-c2nc3c(Nc4ccc(-n5cnc(C)n5)cc4)cccc3n2C(C)C)c1 [Compound 51] |  |  |  |  |  |  | 53 nM | 58 nM | > 3000 nM | > 3000 nM | 79 nM | > 10 µM |
| CCOc1cc(C)c(-c2nc3c(Nc4ccc(-n5cnc(C)n5)c(OC)c4)cccc3o2)cc1C(C)C [Compound 59] |  |  |  |  |  |  | 7300 nM | 7760 nM | 26400 nM | > 30000 nM | > 3000 nM | > 3 µM |
| COc1cc(Nc2cccc3c2nc(-c2ccccc2F)n3C)ccc1-n1cnc(C)c1 [Compound 66] |  |  |  |  |  |  | 27 nM | 24 nM | > 3000 nM | > 3000 nM | 21 nM | > 10 µM |
| Cc1cn(-c2ccc(Nc3cccc4c3nc(-c3ccc(F)cc3)n4C)cn2)cn1 [Compound 68] |  |  |  |  |  |  | 27 nM | 26 nM | > 1000 nM | > 1000 nM | 35 nM | > 10 µM |
| Cc1ncn(-c2ccc(Nc3cc(C(F)(F)F)cc4c3nc(-c3ccc(F)cc3)n4C)cc2)n1 [Compound 69] |  |  |  |  |  |  | 106 nM | 117 nM |  |  | 417 nM | > 10 µM |
| COc1cc(Nc2cccc3c2nc(-c2ccc(F)cc2)n3C(C)(C)C)ccc1-n1cnc(C)n1 [Compound 78] |  |  |  |  |  |  | < 110 nM | < 110 nM | > 3000 nM | > 3000 nM | 100 nM | > 10 µM |
| COc1cc(Nc2cccc3oc(-c4cccnc4)nc23)ccc1-n1cnc(C)c1 [Compound 86] |  |  |  |  |  |  | > 3000 nM | > 3000 nM | > 3000 nM | > 3000 nM | > 10000 nM | > 10 µM |
| Cc1ncn(-c2ccc(Nc3cccc4oc(CC(C)C)nc34)nc2)n1 [Compound 87] |  |  |  |  |  |  | > 3000 nM | > 3000 nM | > 3000 nM |  | > 10000 nM | > 10 µM |
| Cc1ncn(-c2ccc(Nc3cccc4c3nc(-c3ccc(F)cc3)n4C(C)C)nc2)n1 [Compound 89] |  |  |  |  |  |  | 326 nM | 324 nM | > 3000 nM | > 3000 nM | 575 nM | > 10 µM |
| COc1cc(Nc2nccc3c2nc(CC2CC2)n3C)ccc1-n1ncnc1C [Compound 101] |  |  |  |  |  |  | > 3000 nM | > 3000 nM |  |  | 5890 nM | > 10 µM |
| Cc1ncn(-c2ccc(Nc3cccc4c3nc(-c3ccc(F)cc3)n4C)cc2)n1 [Compound 103] |  |  |  |  |  |  | 87 nM | 89 nM |  |  | 102 nM | > 10 µM |
| COc1nc(Nc2cccc3c2nc(-c2ccc(F)cc2)n3C(C)C)ccc1-n1cnc(C)c1 [Compound 116] |  |  |  |  |  |  |  | 10 nM |  |  | 4 nM | 6.61 µM |
| COc1cc(Nc2cccc3c2nc(C2CCOCC2)n3C(C)C)ccc1-n1cnc(C)n1 [Compound 120] |  |  |  |  |  |  |  | > 3000 nM |  |  | 9770 nM | > 10 µM |
| Cc1ncn(-c2ccc(Nc3nccc4c3nc(-c3ccc(F)cc3F)n4C)c(F)c2)n1 [Compound 129] |  |  |  |  |  |  |  | > 3000 nM |  |  | > 10000 nM | > 10 µM |
